Experimental data: ChEMBL document CHEMBL1152680, “Peptide inhibitors of HIV-1 integrase: from mechanistic studies to improved lead compounds” (Bioorg Med Chem, 2009)
Active and inactive are the calls of the source. No cut-off for these calls is given here.

Legend:
[1] = Solubility of the compound; format: physicochemical
[2] = biological target: Human immunodeficiency virus type 1 integrase (Human immunodeficiency virus 1) (UniProt Q7ZJM1); experiment: Binding affinity to HIV1 integrase DNA binding domain (240-260) by ELISA
[3] = biological target: Human immunodeficiency virus type 1 integrase (Human immunodeficiency virus 1) (UniProt Q7ZJM1); experiment: Inhibition of integration activity of histidine-tagged HIV1 full length integrase at 76 uM
[4] = biological target: Human immunodeficiency virus type 1 integrase (Human immunodeficiency virus 1) (UniProt Q7ZJM1); experiment: Binding affinity to HIV1 integrase catalytic core domain (94-112) by ELISA
[5] = biological target: T1, Human immunodeficiency virus type 1 integrase (Human immunodeficiency virus 1, UniProt Q7ZJM1); experiment: Binding affinity to tetrameric histidine-tagged HIV1 full length integrase by fluorescence anisotropy
[6] = biological target: Human immunodeficiency virus type 1 integrase (Human immunodeficiency virus 1) (UniProt Q7ZJM1); experiment: Binding affinity to HIV1 integrase catalytic core domain (118-132) by ELISA
[7] = biological target: Human immunodeficiency virus type 1 integrase (Human immunodeficiency virus 1) (UniProt Q7ZJM1); experiment: Inhibition of histidine-tagged HIV1 full length integrase assessed as inhibition of viral DNA integration into human SupT1 cellular genome at 62.5 uM treated 2 hrs before viral infection measured after 24 hrs by real time PCR analysis; format: cell-based
[8] = system: Human immunodeficiency virus 1; experiment: Antiviral activity against HIV1 infected in human TZM-bl cells assessed as inhibition of viral replication at 62.5 uM treated 2 hrs before viral infection measured after 2 days by MAGI assay; format: functional; conditions: Human immunodeficiency virus 1, TZM-bl
[9] = system: Human immunodeficiency virus 1; experiment: Antiviral activity against HIV1 infected in human TZM-bl cells assessed as inhibition of viral replication treated 2 hrs before viral infection; format: functional, organism-based
[10] = biological target: Human immunodeficiency virus type 1 integrase (Human immunodeficiency virus 1) (UniProt Q7ZJM1); experiment: Binding affinity to HIV1 integrase catalytic core domain (70-84) by ELISA
[11] = biological target: Human immunodeficiency virus type 1 integrase (Human immunodeficiency virus 1) (UniProt Q7ZJM1); experiment: Binding affinity to tetrameric histidine-tagged HIV1 full length integrase by analytical gel filtration
[12] = biological target: Human immunodeficiency virus type 1 integrase (Human immunodeficiency virus 1) (UniProt Q7ZJM1); experiment: Inhibition of viral DNA binding to tetrameric histidine-tagged HIV1 full length integrase treated for 20 mins before addition of fluorescein-labeled viral LTR DNA by fluorescence anisotropy
[13] = system: Human immunodeficiency virus 1; experiment: Antiviral activity against HIV1 infected in human SupT1 cells assessed as change in total amount of viral DNA at 0.5 to 62.5 uM treated 2 hrs before viral infection measured after 24 hrs by real time PCR analysis; format: functional, organism-based; conditions: SUP-T1
[14] = biological target: Human immunodeficiency virus type 1 integrase (Human immunodeficiency virus 1) (UniProt Q7ZJM1); experiment: Inhibition of integration activity of histidine-tagged HIV1 full length integrase at enzyme to peptide molar ratio of 1:50; conditions: concentration not given here
[15] = Cellular uptake in cytoplasm of human HeLa cells at 10 uM after 2 hrs by confocal microscopy; format: ADME, cell-based
[16] = biological target: Human immunodeficiency virus type 1 integrase (Human immunodeficiency virus 1) (UniProt Q7ZJM1); experiment: Ratio of compound to IN1 activity for inhibition of viral DNA binding to histidine-tagged HIV1 full length integrase
[17] = biological target: Human immunodeficiency virus type 1 integrase (Human immunodeficiency virus 1) (UniProt Q7ZJM1); experiment: Inhibition of viral DNA binding to dimeric histidine-tagged HIV1 full length integrase treated for 20 mins before addition of fluorescein-labeled viral LTR DNA by fluorescence anisotropy
[18] = biological target: Human immunodeficiency virus type 1 integrase (Human immunodeficiency virus 1) (UniProt Q7ZJM1); experiment: Binding affinity to dimeric histidine-tagged HIV1 full length integrase by analytical gel filtration
[19] = Cellular uptake in nucleus of human HeLa cells at 10 uM after 2 hrs by confocal microscopy; format: ADME, cell-based
[20] = biological target: T1, Human immunodeficiency virus type 1 integrase; experiment: Binding affinity to histidine-tagged HIV1 full length integrase by fluorescence anisotropy

Chain of Human immunodeficiency virus type 1 integrase (Human immunodeficiency virus 1) (Q7ZJM1 as listed by the source): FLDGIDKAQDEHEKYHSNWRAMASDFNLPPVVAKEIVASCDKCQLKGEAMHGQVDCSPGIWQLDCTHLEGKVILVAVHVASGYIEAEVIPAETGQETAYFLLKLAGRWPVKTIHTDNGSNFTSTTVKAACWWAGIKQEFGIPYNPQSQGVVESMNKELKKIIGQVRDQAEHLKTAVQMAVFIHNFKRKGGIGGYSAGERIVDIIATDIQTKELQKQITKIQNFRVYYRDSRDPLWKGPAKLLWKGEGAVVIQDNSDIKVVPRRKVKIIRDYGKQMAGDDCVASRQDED
T1 sequence (Q7ZJM1 whole entry, the tested form may be a part): as the sequence (Q7ZJM1 as listed by the source) above

Substance	Activity [2]	inhibition [3] [%]	Activity [4]	Activity [6]	inhibition [7] [%]	inhibition at 62.5 µM [8] [%]	inhibition [9]	Activity [13]	inhibition [14] [%]	Drug uptake [15]	Ratio [16]	inhibition [17]	Activity [18]	Drug uptake [19]	Kd ([20]; read-out: Kd) [nM]	other results
H-WQCLTLTHRGFVLLTITVLR-OH	Active	77	Active	Active	63	70	Dose-dependent effect	inactive	–	–	–	–	–	–	–	solubility [1]: Soluble; Kd [5]: 8700 nM; Activity [10]: Active; Activity [11]: Active; inhibition [12]: Active
H-WFVLLTITVLR-OH [WFVLLTITVLR]	Active	–	–	Active	23	29	Dose-dependent effect	inactive	24	Active	2	Active	Active	Active	1800	–
H-WQCLTLTHRG-OH	–	73	Active	Active	64	68	Dose-dependent effect	inactive	–	Active	2	Active	Active	Active	1700	–
H-WQSLTLTHRG-OH	–	–	–	–	51	60	Dose-dependent effect	inactive	62	Active	–	Active	–	Active	1200	–
H-WITVLR-OH	–	–	–	–	–	–	Dose-dependent effect	–	–	–	–	Active	–	–	–	Kd [20]: Not Active
